# According to patent US8344028B2, “Gamma-amino-butyric acid derivatives as GABAB receptor ligands” (XenoPort, Inc., priority 2009, dated 2013):
# Counter-ions that a name gives are not always drawn.
# Legend:
# GABAB receptor [1] = target: T1, GABAB receptor (Rattus norvegicus, UniProt Q9Z0U4); assay: [3H]CGP54626 rat brain GABAB receptor binding assay; details: [3H]CGP54626 rat brain binding assay
# T1 construct: from tissue; host or cells: rat cerebral cortex membranes
# Method: An assay using rat cerebral cortex membranes was used to determine the affinity of GABAB receptor ligands for the GABAB receptor.
# An assay buffer of 50 mM Tris pH 7.4 was prepared with 100 μM of isoguvacine, to block GABAA interactions. The assay buffer with isoguvacine was used for dilution of membranes, compounds, and radiolabel.
# Rat cerebral cortex membranes were diluted in assay buffer at 1 mg/mL and aliquoted into a 96-well plate at 900 μL/well. Buffer or test compound were added at 20-times final concentration in the buffer at 50 μL/well. Membranes and test compounds or buffer were incubated for 10 min. at room temperature. Radiolableled [S—(R*,R*)]-[3-[[1-(3,4-dichlorophenyl)ethyl]amino]-2-hydroxypropyl](cyclohexylmethyl) phosphinic acid (CGP54626) was then added at 50 μL/well in the buffer at 1-10 nM concentration in 50 μl. The mixture was incubated for 15 min. at room temperature. The assay mixture was filtered using Brandell filtration apparatus and GFB filters, washed twice with 3 mL of 4° C., 50 mM Tris pH 7.4, buffer without isoguvacine. The filters were then dried at room temperature and the dried filters punched out and placed in individual vials. Three (3) mL of scintillation fluid was added to each vial and the radiolabel counted on the scintillation counter. The inverse amount of radiolabel was indicative of binding of a test compound to the GABAB receptor.
# [2] = target: T2, recombinant human GABABR1a2 (Homo sapiens, UniProt Q9UBS5); assay: cAMP assay for determining GABAB receptor agonist activity; assay type: cell-based
# T2 construct: expressed in transfected cells; host or cells: HEK cells
# T2 sequence (Q9UBS5 15-961 limits assumed): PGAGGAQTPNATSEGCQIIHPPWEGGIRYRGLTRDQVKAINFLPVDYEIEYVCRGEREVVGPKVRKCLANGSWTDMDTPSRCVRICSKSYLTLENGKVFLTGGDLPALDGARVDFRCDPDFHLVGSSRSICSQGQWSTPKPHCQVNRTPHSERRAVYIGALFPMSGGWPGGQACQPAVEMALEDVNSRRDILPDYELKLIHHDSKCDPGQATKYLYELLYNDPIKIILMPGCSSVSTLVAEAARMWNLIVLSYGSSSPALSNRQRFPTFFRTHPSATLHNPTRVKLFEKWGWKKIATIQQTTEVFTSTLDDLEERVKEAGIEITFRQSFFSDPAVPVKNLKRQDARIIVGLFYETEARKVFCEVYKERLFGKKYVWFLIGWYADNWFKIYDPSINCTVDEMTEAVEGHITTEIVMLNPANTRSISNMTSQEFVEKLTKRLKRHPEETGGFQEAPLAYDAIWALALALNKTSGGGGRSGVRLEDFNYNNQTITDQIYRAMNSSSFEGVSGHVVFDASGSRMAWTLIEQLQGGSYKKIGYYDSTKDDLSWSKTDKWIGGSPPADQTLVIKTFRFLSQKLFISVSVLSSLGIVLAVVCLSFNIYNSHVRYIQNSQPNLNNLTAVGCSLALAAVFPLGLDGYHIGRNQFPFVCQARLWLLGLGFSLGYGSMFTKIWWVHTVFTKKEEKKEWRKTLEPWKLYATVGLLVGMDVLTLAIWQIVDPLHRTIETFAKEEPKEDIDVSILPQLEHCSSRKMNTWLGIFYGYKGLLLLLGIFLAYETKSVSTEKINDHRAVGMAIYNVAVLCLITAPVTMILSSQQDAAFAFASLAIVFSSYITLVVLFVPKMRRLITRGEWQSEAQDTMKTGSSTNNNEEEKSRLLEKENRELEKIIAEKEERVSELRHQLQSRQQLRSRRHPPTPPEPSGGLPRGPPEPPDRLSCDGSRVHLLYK
# T2 sequence (O75899 42-941 partner): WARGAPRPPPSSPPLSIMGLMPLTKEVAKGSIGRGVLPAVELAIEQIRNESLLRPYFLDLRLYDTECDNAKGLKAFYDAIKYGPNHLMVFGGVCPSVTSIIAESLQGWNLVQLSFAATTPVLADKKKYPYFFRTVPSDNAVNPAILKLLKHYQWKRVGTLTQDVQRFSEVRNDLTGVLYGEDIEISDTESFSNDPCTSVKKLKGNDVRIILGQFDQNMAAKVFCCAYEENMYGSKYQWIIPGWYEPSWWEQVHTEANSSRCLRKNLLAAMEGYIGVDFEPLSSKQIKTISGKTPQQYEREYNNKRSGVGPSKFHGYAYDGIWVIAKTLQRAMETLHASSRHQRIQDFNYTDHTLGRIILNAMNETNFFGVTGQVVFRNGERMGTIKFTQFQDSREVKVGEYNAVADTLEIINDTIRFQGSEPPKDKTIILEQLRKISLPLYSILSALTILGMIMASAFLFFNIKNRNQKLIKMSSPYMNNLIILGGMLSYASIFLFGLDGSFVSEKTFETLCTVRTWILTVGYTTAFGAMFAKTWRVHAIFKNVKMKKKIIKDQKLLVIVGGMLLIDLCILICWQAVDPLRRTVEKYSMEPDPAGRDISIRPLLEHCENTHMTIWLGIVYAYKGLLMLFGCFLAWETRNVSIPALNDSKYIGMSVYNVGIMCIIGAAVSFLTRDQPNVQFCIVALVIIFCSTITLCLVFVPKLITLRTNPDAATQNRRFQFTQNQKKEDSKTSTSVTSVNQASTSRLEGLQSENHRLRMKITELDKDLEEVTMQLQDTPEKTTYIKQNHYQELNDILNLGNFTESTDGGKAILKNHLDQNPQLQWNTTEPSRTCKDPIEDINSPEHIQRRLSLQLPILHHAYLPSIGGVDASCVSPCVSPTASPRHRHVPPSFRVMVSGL
# Method: The following procedure was used to determine the level of intracellular cAMP. Recombinant HEK cells expressing the GABAB R1a2 receptor were used in the experiments. cAMP levels were measured using a cAMP XS^+ HitHunter™ Chemiluminescence Assay Kit (90-0075-02, GE Healthcare Biosciences Corp.). Cells were seeded overnight at 5,000 cells per well, in black, clear bottom 96-well plates. The following morning, cells were washed twice with 100 μL PBS per well. Forskolin was weighed out and dissolved in DMSO to a final concentration 100 mM. One-hundred (100) μM forskolin solutions were prepared in PBS with and without test compound at 1-times final concentration. Thirty (30) μL of the test solutions were added to the wells and incubated for 1 h at room temperature. The cAMP concentration was determined according to the protocol described in the cAMP assay kit, maintaining the plate at room temperature and in the dark. Two hours after the final kit reagent was added, the plate bottom was covered with black tape, and the plate read using a 1450 MicroBeta Trilux microplate scintillation and luminescence counter (PerkinElmer, Waltham, Mass.). Each well was read for 6 seconds. The untransformed data was then analyzed.
# [3] = target: T2, recombinant human GABABR1a2; assay: Ca2+ assay for determining GABAB receptor agonist activity; assay type: cell-based; details: cells expressing recombinant human GABABR1a2
# Method: The following procedure was used to determine the GABAB receptor agonist activity of a compound as reflected by activation of Ca^2+ signaling. HEK TREx cells expressing GABABR1a2 under tetracycline induction control, and Gqi chimeric protein (expressed constitutively), allowing GABABR coupling through the Ca^2+ signaling pathway were used in the experiments.
# Cells were seeded in media containing tetracycline overnight at 100,000 cells/well, in black, clear-bottom, 96-well plates. The following morning, cells were washed twice with 100 μL HBSS buffer per well. Fluorescent Ca^2+ indicator dye was prepared using the materials and procedure described in the F362056 Fluo-4 NW Calcium Assay Kit (Invitrogen, Carlsbad, Calif.). Ten (10) mL of kit buffer and 100 μl of kit Probenecid were added to individual kit dye vials, and rolled back and forth several times to dissolve the dye. Cells were then loaded into the dye solution at 50 μL per well. The cells and dye were incubated for 30 min at 37° C., and then incubated for an additional 30 min at room temperature in the dark. Test compounds are dissolved in HBSS buffer at twice final concentration. Duplicate wells were used for each unique condition. Solution containing the test compound was added to the wells using a FLEXStation II (Molecular Devices, Sunnyvale, Calif.). Using the instrument in kinetic mode in which each well was read every 2 sec over a total collection time of 50 sec fluorescence was measured using an excitation wavelength 494 nm and a detection wavelength of 516 nm. A normalized fluorescence value for each well was calculated using the following procedure. The difference in fluorescence at 35 sec (usually representing maximal response) and at 15 sec (a time point prior to addition of test compounds) was calculated, divided by the fluorescence at 15 sec, and the result multiplied by 100. The final value represented the percent increase in fluorescence relative to the fluorescence at 15 sec. Data was analyzed using standard procedures.
# GABAB receptor [4] = target: GABAB receptor (Homo sapiens, UniProt Q9UBS5); assay: GABAB receptor agonist or partial agonist activity by binding, electrophysiology, cAMP and/or Ca2+ assay methods (Examples 83-86); assay type: cell-based
# Chain of GABAB receptor (Homo sapiens, UniProt Q9UBS5) (Q9UBS5 20-961): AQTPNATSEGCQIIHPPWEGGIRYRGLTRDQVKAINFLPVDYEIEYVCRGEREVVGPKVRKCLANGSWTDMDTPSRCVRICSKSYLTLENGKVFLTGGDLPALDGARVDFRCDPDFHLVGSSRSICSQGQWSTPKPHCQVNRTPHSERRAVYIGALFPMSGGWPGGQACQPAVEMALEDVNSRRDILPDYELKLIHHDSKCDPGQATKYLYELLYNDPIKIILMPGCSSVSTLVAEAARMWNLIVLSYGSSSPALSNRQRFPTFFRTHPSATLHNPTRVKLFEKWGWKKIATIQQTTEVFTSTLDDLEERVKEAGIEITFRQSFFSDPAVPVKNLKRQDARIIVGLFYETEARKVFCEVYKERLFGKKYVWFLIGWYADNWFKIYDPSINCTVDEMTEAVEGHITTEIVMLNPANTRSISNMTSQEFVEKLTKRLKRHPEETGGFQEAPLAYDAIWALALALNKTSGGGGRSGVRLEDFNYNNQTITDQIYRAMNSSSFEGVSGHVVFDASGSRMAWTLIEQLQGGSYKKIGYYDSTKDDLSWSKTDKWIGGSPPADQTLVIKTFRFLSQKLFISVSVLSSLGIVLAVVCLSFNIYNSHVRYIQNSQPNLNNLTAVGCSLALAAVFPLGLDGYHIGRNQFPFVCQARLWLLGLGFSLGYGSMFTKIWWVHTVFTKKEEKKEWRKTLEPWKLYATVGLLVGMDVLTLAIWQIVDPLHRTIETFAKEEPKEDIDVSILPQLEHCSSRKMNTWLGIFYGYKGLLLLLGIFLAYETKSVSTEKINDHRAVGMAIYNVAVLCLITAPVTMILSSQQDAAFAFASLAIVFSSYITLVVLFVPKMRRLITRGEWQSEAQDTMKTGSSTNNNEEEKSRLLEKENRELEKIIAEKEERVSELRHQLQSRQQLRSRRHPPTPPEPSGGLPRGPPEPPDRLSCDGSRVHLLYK
# Chain of GABAB receptor (Homo sapiens, UniProt Q9UBS5) (O75899 42-941 partner): as the sequence (O75899 42-941 partner) above
# Method in brief: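 Binding: rat cortex membranes in 50 mM Tris pH 7.4 with 100 μM isoguvacine were preincubated 10 min at RT with compound, then radiolabeled CGP54626 (1-10 nM) was added; filtered and scintillation-counted. cAMP: GABAB R1a2 HEK cells, 1 h RT with 100 μM forskolin, chemiluminescence.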
# [5] = cells expressing recombinant human GABABR1a2, read-out: cAMP EC50
# T1 sequence (Q9Z0U4 20-960): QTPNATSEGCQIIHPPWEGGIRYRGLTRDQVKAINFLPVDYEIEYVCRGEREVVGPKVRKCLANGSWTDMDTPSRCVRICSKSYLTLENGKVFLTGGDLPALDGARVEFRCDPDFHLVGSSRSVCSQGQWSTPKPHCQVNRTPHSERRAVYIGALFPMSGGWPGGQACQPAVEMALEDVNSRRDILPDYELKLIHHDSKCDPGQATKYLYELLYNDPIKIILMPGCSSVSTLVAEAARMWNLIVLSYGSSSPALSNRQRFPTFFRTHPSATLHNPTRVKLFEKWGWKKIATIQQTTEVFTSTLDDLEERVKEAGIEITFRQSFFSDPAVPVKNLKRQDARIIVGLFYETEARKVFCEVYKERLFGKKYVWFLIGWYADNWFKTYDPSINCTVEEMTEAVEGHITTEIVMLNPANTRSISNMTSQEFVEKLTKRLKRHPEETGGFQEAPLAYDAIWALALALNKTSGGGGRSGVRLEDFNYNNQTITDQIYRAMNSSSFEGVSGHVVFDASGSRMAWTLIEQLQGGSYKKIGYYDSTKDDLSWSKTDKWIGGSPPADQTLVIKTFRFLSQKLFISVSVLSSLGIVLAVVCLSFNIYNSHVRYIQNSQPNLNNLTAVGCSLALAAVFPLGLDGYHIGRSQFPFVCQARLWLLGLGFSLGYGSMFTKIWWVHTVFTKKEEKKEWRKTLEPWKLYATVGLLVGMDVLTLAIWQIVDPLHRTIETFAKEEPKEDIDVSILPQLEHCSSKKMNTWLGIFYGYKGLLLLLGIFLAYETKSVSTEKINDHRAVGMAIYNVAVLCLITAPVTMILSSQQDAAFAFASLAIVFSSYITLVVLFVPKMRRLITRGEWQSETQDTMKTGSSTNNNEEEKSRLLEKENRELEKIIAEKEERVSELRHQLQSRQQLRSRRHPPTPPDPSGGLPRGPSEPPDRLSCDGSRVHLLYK
# T1 sequence (O88871 41-940 partner): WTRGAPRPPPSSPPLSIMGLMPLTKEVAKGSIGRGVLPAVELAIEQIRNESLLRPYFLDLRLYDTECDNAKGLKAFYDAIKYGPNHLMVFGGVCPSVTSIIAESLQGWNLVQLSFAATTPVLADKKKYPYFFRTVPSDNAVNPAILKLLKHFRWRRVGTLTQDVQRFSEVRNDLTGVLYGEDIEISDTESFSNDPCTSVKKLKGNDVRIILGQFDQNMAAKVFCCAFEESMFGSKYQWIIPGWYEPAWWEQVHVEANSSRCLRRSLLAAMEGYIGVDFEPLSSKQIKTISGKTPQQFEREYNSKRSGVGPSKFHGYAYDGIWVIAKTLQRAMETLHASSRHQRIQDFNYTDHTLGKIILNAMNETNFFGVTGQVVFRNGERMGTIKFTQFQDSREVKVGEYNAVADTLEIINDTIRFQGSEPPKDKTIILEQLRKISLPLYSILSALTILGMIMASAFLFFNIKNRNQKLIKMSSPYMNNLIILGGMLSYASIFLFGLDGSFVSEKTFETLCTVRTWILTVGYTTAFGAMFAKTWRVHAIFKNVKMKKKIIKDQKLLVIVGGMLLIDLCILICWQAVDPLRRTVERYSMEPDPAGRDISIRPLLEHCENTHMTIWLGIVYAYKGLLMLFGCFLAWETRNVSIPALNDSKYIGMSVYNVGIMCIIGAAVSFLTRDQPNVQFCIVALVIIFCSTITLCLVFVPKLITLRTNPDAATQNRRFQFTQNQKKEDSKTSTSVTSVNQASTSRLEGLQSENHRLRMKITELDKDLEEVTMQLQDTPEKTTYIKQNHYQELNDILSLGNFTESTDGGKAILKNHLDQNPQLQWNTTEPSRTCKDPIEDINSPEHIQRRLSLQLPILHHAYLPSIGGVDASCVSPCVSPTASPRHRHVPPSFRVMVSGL
Compound,IC50 (GABAB receptor [1]) [nM],"EC50 [2, 5] [nM]",EC50 [3] [nM],GABAB receptor agonist or partial agonist activity (GABAB receptor [4]),EC50 [2] [nM]
"NC[C@H](CC(=O)O)c1ccc(Cl)c(OCc2cncs2)c1 [(3R)-4-amino-3-[4-chloro-3-(1,3-thiazol-5-ylmethoxy)phenyl]butanoic acid hydrochloride]",< 25000,< 100,< 700,,
NC[C@H](CC(=O)O)c1ccc(Cl)c(OCCc2ccncc2)c1 [(3R)-4-amino-3-[4-chloro-3-(2-(4-pyridyl)ethoxy)phenyl]butanoic acid hydrochloride],< 25000,< 100,< 700,,
N#Cc1cc(-c2cc([C@H](CN)CC(=O)O)ccc2Cl)cs1 [(3R)-4-amino-3-[4-chloro-3-(5-cyano(3-thienyl))phenyl]butanoic acid hydrochloride],< 25000,< 100,< 700,,
Cc1cc(COc2cc([C@H](CN)CC(=O)O)ccc2Cl)ccn1 [(3R)-4-amino-3-{4-chloro-3-[(2-methyl(4-pyridyl))methoxy]phenyl}butanoic acid hydrochloride],< 25000,< 100,< 700,,
NC[C@H](CC(=O)O)c1ccc(Cl)c(OCc2ccncc2Cl)c1 [(3R)-4-amino-3-{4-chloro-3-[(3-chloro(4-pyridyl))methoxy]phenyl}butanoic acid hydrochloride],< 25000,< 100,< 700,,
"Cl.N#Cc1cccc(-c2cc([C@H](CN)CCO)ccc2Cl)c1 [Example 53, 3-{5-[(1R)-1-(Aminomethyl)-3-hydroxypropyl]-2-chlorophenyl}benzenecarbonitrile hydrochloride]",,,,agonist or partial agonist activity,
Cl.NC[C@H](CC(=O)O)c1ccc(Cl)c(NCc2ccccn2)c1 [Example 58],,,,agonist or partial agonist activity,
"Cn1cncc1CNc1cc([C@H](CN)CC(=O)O)ccc1Cl [Example 59, (3R)-4-Amino-3-(4-chloro-3-{[(1-methylimidazol-5-yl)methyl]amino}phenyl)butanoic acid]",,,,agonist or partial agonist activity,
"NCC(C[PH](=O)O)c1ccc(Cl)c(OCc2ccncc2)c1 (stereo not shown) [Example 82, 2-{4-Chloro-3-(4-pyridylmethoxy)phenyl]-3-(hydrohydroxyphosphoryl)propylamine]",< 25000,,< 700,,< 100
(3R)-4-amino-3-{4-chloro-3-[(2-pyridyl)carbonylamino]phenyl)carbonylamino]phenyl}butanoic acid,,,,agonist or partial agonist activity,

# Continued, in another order:
IC50 (GABAB receptor [1]) [nM],"EC50 [2, 5] [nM]",EC50 [3] [nM],GABAB receptor agonist or partial agonist activity (GABAB receptor [4]),Compound,EC50 [2] [nM]
< 25000,< 100,< 700,,NC[C@H](CC(=O)O)c1ccc(Cl)c(-c2cc(C(=O)O)co2)c1 [5-{5-[(1R)-2-amino-1-(carboxymethyl)ethyl]-2-chlorophenyl}furan-3-carboxylic acid hydrochloride],
< 25000,< 100,< 700,,NC[C@H](CC(=O)O)c1ccc(Cl)c(-c2cc(C(=O)O)cs2)c1 [5-{5-[(1R)-2-amino-1-(carboxymethyl)ethyl]-2-chlorophenyl}thiophene-3-carboxylic acid hydrochloride],
< 25000,< 100,< 700,,C[C@@H](Oc1cc([C@H](CN)CC(=O)O)ccc1Cl)c1ccncc1 [(3R)-3-[3-((1R)-1-(4-pyridyl)ethoxy)-4-chlorophenyl]-4-aminobutanoic acid hydrochloride],
< 25000,< 100,< 700,,"CN(C)C(=O)c1ccc(-c2cc([C@H](CN)CC(=O)O)ccc2Cl)s1 [(3R)-4-amino-3-{3-[5-(N,N-dimethylcarbamoyl)(2-thienyl)]-4-chlorophenyl}butanoic acid hydrochloride]",
,,,agonist or partial agonist activity,"CN(C)c1cccc(-c2cc([C@H](CN)CC(=O)O)ccc2Cl)c1.Cl [Example 41, (3R)-4-Amino-3-{3-[3-(dimethylamino)phenyl]-4-chlorophenyl}butanoic acid hydrochloride]",
,,,agonist or partial agonist activity,"Cl.NC[C@H](CC(=O)O)c1ccc(Cl)c(-c2cccc(CC(=O)O)c2)c1 [Example 43, (3R)-4-Amino-3-{3-[3-(carboxymethyl)phenyl]-4-chlorophenyl}butanoic acid hydrochloride]",
,,,agonist or partial agonist activity,"Cl.NC[C@H](CC(=O)O)c1ccc(Cl)c(-c2ccc(C(=O)O)cc2Cl)c1 [Example 44, 4-{5-[(1R)-2-Amino-1-(carboxymethyl)ethyl]-2-chlorophenyl}-3-chlorobenzoic acid hydrochloride]",
< 25000,< 100,< 700,,"NC[C@H](CC(=O)O)c1ccc(Cl)c(-c2ccc([N+](=O)[O-])cc2)c1 [Example 47, (3R)-4-Amino-3-[4-chloro-3-(4-nitrophenyl)phenyl]butanoic acid hydrochloride]",
,,,agonist or partial agonist activity,"Cl.NC[C@H](CC(=O)O)c1ccc(Cl)c(-c2cncc(C(=O)O)c2)c1 [Example 48, 5-{5-[(1R)-2-Amino-1-(carboxymethyl)ethyl]-2-chlorophenyl}pyridine-3-carboxylic acid hydrochloride]",
,,,agonist or partial agonist activity,"Cl.N#Cc1cc(-c2cc([C@H](CN)CC(=O)O)ccc2Cl)ccc1Cl [Example 49, (3R)-4-Amino-3-[4-chloro-3-(4-chloro-3-cyanophenyl)phenyl]butanoic acid hydrochloride]",
,,,agonist or partial agonist activity,"Cl.NC[C@H](CC(=O)O)c1cccc(-c2cccc(C(=O)O)c2)c1 [Example 51, 3-{3-[(1R)-2-Amino-1-(carboxymethyl)ethyl]phenyl}benzoic acid hydrochloride]",
,,,agonist or partial agonist activity,"CS(=O)(=O)c1cccc(-c2cc([C@H](CN)CC(=O)O)ccc2Cl)c1.Cl [Example 54, (3R)-4-Amino-3-{4-chloro-3-[3-(methylsulfonyl)phenyl]phenyl}butanoic acid hydrochloride]",
,,,agonist or partial agonist activity,"Cl.NC[C@H](CC(=O)O)c1ccc(Cl)c(NCc2ccc(C(=O)O)cc2)c1 [Example 63, 4-[({5-[(1R)-2-Amino-1-(carboxymethyl)ethyl]-2-chlorophenyl}amino)methyl]benzoic acid hydrochloride]",
,,,agonist or partial agonist activity,"Cl.NC[C@H](CC(=O)O)c1ccc(Cl)c(NCc2ccoc2)c1 [Example 64, (3R)-4-Amino-3-{4-chloro-3-[(3-furylmethyl)amino]phenyl}butanoic acid hydrochloride]",
